Like-named read-outs stand apart in the source and are kept apart here.

The target of one series is T1, HIV-1 RT (Human immunodeficiency virus type 1 group M subtype B, UniProt P04585).
T1 construct: The primary target of tenofovir diphosphate is reverse transcriptase (RT)
The note with it: inhibition of HIV-1 RT; competitive with deoxyadenosine triphosphate incorporation; read-out: inhibition constant; cited from earlier work.

Series [1] concerns laboratory HIV-1 strains and primary clinical isolates. To be noted: cited from earlier work.
For series [2] the following is noted: atazanavir/ritonavir 300/100 mg once daily, cited from earlier work.
For series [3] the following is noted: ritonavir 100 mg once daily with atazanavir, cited from earlier work.
The conditions of series [4]: cited from earlier work; for Geometric mean ratio (95% confidence interval) for the AUC: saquinavir hard gel/ritonavir 1000/100 mg twice daily + tenofovir disoproxil fumarate 300 mg once daily.
For series [5] the following is noted: healthy subjects, cited from earlier work; for AUC increase / Cmax increase / Cmin increase: saquinavir/ritonavir 1000/100 mg twice daily with tenofovir disoproxil fumarate 300 mg once daily vs alone.
A short description of series [6]: Volunteer study of TMC114/ritonavir with tenofovir disoproxil fumarate, pharmacokinetics and tolerability. On the procedure:
Methods: 13 healthy volunteers were randomised into 2 cohorts.
In session 2, both cohorts received 300 mg tenofovir disoproxil fumarate qd for 14 days.

The conditions of series [7]: lopinavir/ritonavir 400/100 mg twice daily 14 days + tenofovir 300 mg once daily, healthy volunteers; cited from earlier work.
Where [8] appears, read: after addition of tenofovir disoproxil fumarate 300 mg once daily.
Setting [9] is: before addition of tenofovir disoproxil fumarate.
Setting [10] is: in the presence of tenofovir 300 mg once daily.
Where [11] appears, read: tenofovir disoproxil fumarate 300 mg qd with TMC114/ritonavir co-administered vs alone, statistically significant.

Regarding `CC(Cn1cnc2c(N)ncnc21)OCP(=O)(O)OP(=O)(O)OP(=O)(O)O` (stereo in doubt) [tenofovir diphosphate], the Ki on HIV-1 RT is approximately 900 nM.
As for `CC(C)CN(C[C@@H](O)[C@H](Cc1ccccc1)NC(=O)OC1CO[C@H]2OCC[C@@H]12)S(=O)(=O)c1ccc(N)cc1` (some centres unmarked) [TMC114], in series [1], the IC90 – broadly, the point of the concentration-response curve where the effect stands at 90% – was approximately 9 nM. The IC50 in series [1] (read-out: 50% inhibitory concentration [IC50]) was approximately 3 nM.
Consider `COC(=O)N[C@H](C(=O)N[C@@H](Cc1ccccc1)[C@@H](O)CN(Cc1ccc(-c2ccccn2)cc1)NC(=O)[C@@H](NC(=O)OC)C(C)(C)C)C(C)(C)C` [atazanavir], for which, in series [2] (setting [8]), the “AUC (mean±sd)” value was 39276 ± 23034 ng·h/mL and the “Cmax (mean±sd)” value is 3443 ± 1412 ng/mL. Also, in series [2] (setting [9]), the “AUC (mean±sd)” value was 53761 ± 35255 ng·h/mL and the “Cmax (mean±sd)” value was 5233 ± 3033 ng/mL.
As for `CC(C)c1nc(CN(C)C(=O)N[C@H](C(=O)N[C@@H](Cc2ccccc2)C[C@H](O)[C@H](Cc2ccccc2)NC(=O)OCc2cncs2)C(C)C)cs1` [ritonavir], the AUC (as a rule, concentration integrated over time) in series [3] (setting [10]) is 5217 ng·h/mL; in series [3] (without tenofovir, HIV+ subjects) it was 7011 ng·h/mL. Further, the values for the Cmax in series [3] (setting [10]) and in series [3] (without tenofovir) were 642 ng/mL and 886 ng/mL, respectively. Further, in series [4] (in vivo), the “plasma concentrations compared with day 1” value is “not significantly different”.
`CC(C)(C)NC(=O)[C@@H]1C[C@@H]2CCCC[C@@H]2CN1C[C@@H](O)[C@H](Cc1ccccc1)NC(=O)[C@H](CC(N)=O)NC(=O)c1ccc2ccccc2n1` [saquinavir]: the “Geometric mean ratio (95% confidence interval) for the AUC” value in series [4] (day 3 vs day 1) is 1.16 (0.97, 1.59). Further, in series [4] (day 14 vs day 1), the “Geometric mean ratio (95% confidence interval) for the AUC” value is given as 0.99 (0.87, 1.30). Moreover, in series [4] (following the addition of tenofovir disoproxil fumarate), the “plasma concentrations compared with day 1” value was “not significantly different”. Besides, in series [5], the AUC increase is recorded as 29%, the Cmax increase is recorded as 22% and the Cmin increase is 47%. In series [5] (saquinavir/ritonavir 1000/100 mg twice daily), the “Cmin achieved by all subjects” value is reported as “above 100 ng/ml”.
With `C[C@H](Cn1cnc2c(N)ncnc21)OCP(=O)(O)O` [tenofovir], the “urinary excretion of unchanged drug during one dosing interval” value in series [6] (in the presence and absence of TMC114/RTV) is recorded as “approximately 36%”. Moreover, in series [6] (setting [11]), the “AUC24h (systemic exposure) increase based on the ratio of LSmeans” value turned out to be 22%, the “Cmax increase based on the ratio of LSmeans” value was determined as 24% and the “Cmin increase based on the ratio of LSmeans” value was 37%. Moreover, in series [7], the AUC increase was 34%, the Cmax increase is reported as 31% and the Cmin increase is recorded as 29%. In addition, in series [5], the AUC increase is given as 14%, the Cmax increase is on record as 15% and the Cmin increase is 23%.
